{"source": "paper PMC12117998", "about": "“First Steps toward the Design of Peptides that Influence the Intracellular Palmitoylation Machinery” (Chembiochem, 2025)", "key": {"[1]": {"test": "Peptide incubation in media and identification of peptide species (LC-MS)", "assay_type": "physicochemical", "method": "Hela cells (15,000) were seeded into a 96-well plate. Cells were treated with suitable peptide concentrations diluted in the corresponding serum-free culture medium. After 1 h peptide incubation under standard growth conditions, the positive control was either directly treated with lysis solution or the supernatant was exchanged for serum-free culture medium and the plate was incubated for further 5 h under growing conditions. The CytoTox-ONE™ Reagent was added and incubated at RT for 10 minutes. Finally, the Stop Solution was added and the fluorescence was measured at 595 nm (λex = 550 nm) on an infinite M200 plate reader (Tecan) and normalized to the positive control cells.\nRed blood cells (RBCs) were washed three times in PBS by centrifug ing at 4 °C and 3,000 x g for 5 min and diluted to 5% in PBS. The desired peptide concentrations diluted in PBS were added into a 96-well plate. Next, 5% RBCs in PBS were added into the wells and incubated for 24 h at 37 °C and 5% CO2. As a positive control, RBCs were mixed with 10% Triton X-100 in PBS. After the incubation time was completed, the plate was centrifuged at 2,500 x g for 3 min at RT and 100 μL of the supernatant was transferred into a fresh 96 -well plate. Lastly, the absorption (λ=560 nm) was measured on the infinite M200 plate reader (Tecan). For the evaluation, the measured absorption of the Triton-X-100 treatment was set to a hemolysis rate […]\n30,000 HeLa cells were seeded into an 8-well. Cells were stained for 10 min with the Hoechst 33342 nuclear dye and transferred to the microscope UltraView VoX Spinning Disk Confocal Microscope (Perkin Elmer). 5 µM CF-DC-2 were added to the cells. Cells were imaged on a Plan-Apo Tirf 60X oil objective (NA 1.49, Nikon) at 37°C a nd 5% CO2. […]\nmixed with 5 µl TFA. […] Finally, the different peptide species were analyzed by analytical HPLC ESI-MS (LTQ XL, Thermo Scientific) using a gradient of 10% to 60% of acetonitrile (ACN) in ddH2O + 0.1% formic acid (FA) on an Aeris 3.6 µm PEPTIDE XB-C18 100 LC column (Phenomenex)."}, "HFF‐1 cells": {"system": "HFF‐1 cells", "test": "Cellular uptake by flow cytometry", "assay_type": "cell-based, human", "settings": "HFF‐1, 30 min, 5 μM CF‐labeled peptides, serum-free medium, 37 °C, n ≥ 3 (Figure 3F)", "method": "HeLa (90,000), MDA‐MB‐231 (120,000), and HFF‐1 (125,000) cells were seeded into a 24‐well plate. Cells were treated with the desired concentration of CF‐labeled peptide diluted in the appropriate serum‐free medium for 30 min at 37 °C and 5% CO2. Afterward, cells were washed once with PBS, detached from the plate using indicator‐free trypsin/EDTA and resuspended in indicator‐free culture medium. The cell mixture was measured on the Guava easyCyte flow cytometer (Merck) using the GRN‐B (520/30) detector."}, "human 6His‐ZDHHC7": {"biological_target": "T1, human 6His‐ZDHHC7 (Homo sapiens, UniProt Q9NXF8)", "T1 construct": "6His; purchased Proteintech", "T1 sequence (Q9NXF8 1-308)": "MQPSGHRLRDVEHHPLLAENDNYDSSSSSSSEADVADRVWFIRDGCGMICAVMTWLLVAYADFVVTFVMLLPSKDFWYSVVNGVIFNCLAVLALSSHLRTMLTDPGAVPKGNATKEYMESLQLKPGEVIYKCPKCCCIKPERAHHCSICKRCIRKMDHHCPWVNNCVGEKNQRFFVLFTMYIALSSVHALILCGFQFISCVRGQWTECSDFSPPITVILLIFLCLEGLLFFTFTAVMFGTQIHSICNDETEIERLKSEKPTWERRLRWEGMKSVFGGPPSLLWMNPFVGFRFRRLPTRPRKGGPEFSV", "test": "In vitro palmitoylation assay (LC‐MS)", "assay_type": "biochemical", "settings": "50 μM CF‐labeled peptide, 37 °C, LC‐MS (Figure 4)", "method": "The 50 μM CF‐labeled peptides were incubated with 100 nM human 6His‐ZDHHC7 (Proteintech) and 100 μM palmitoyl‐CoA (Santa Cruz Biotechnology) in reaction buffer (50 mM HEPES, 150 mM NaCl, 1 mM EDTA, 1 mM (tris(2‐carboxyethyl)phosphine) (TCEP), 0.3 mM DDM, pH 7.0) for 2 h at 37 °C. Control reactions without ZDHHC7 or palm‐CoA were incubated with the appropriate volume of reaction buffer. Afterward, the reaction was centrifuged for 5 min at 13000 rpm. The precipitate was dissolved in DMSO/ACN (3:2, v/v). To enrich the peptide from the supernatant, C8 ZipTips were used. All samples were analyzed on the LC MS‐8060 triple quadrupole ESI‐MS (Shimadzu). The fluorescence intensity (λex = 493 nm, λem = 517 nm) of the samples was measured on an EC 160/2 NUCLEODUR 300‐5 C18 ec column using linear gradients from 20% to 70 % ACN in ddH2O + 0.1% FA over 7 min."}}, "note": "No end group written: not given here.", "data": [{"substance": "GLRKRLRKFRNKKMDHHCPW-NH2 [DC‐2, CPP sC18* fused to the DHHC motif derived from ZDHHC2/3/6/7/15/16/20]", "values": [{"measurement": "peptide species observed in medium lacking L‐cystine", "setting": "[1]; 5 µM CF-DC-2 in serum-free medium lacking L-cystine and L-methionine, LC‐MS (Figure S8A)", "value": "mostly reduced peptide was observed"}, {"measurement": "peptide species observed in normal cell culture medium", "setting": "[1]; 5 µM CF-DC-2 in serum-free medium, before addition to HeLa cells and after 30 min at 37 °C, LC‐MS, Δmass = +119 Da (Figure S8A)", "value": "S‐cysteinylation at the cysteine"}, {"measurement": "disulfide dimer formation in normal cell culture medium", "setting": "[1]; 5 µM CF-DC-2 in serum-free medium, before addition to HeLa cells or after 30 min at 37 °C, LC‐MS (Figure S8A)", "value": "did not observe the disulfide dimer"}, {"measurement": "cellular uptake (in words)", "setting": "HFF‐1 cells", "value": "internalized to a higher extent compared to DC‐4"}, {"measurement": "palmitoylation in presence of ZDHHC7", "setting": "human 6His‐ZDHHC7; 100 nM ZDHHC7, 100 μM palmitoyl‐CoA, pH 7.0, 2 h", "value": "palmitoylated"}, {"measurement": "palmitoylation in absence of ZDHHC7 (auto‐palmitoylation)", "setting": "human 6His‐ZDHHC7; 100 μM palmitoyl‐CoA, no ZDHHC7, pH 7.0, 2 h", "value": "auto‐palmitoylation"}]}]}
